Experimental data: patent US20260198493A1, “HYDRAZIDE COMPOUND AND AGRICULTURAL/HORTICULTURAL FUNGICIDE” (Nippon Soda Co., Ltd., priority 2022, published 2026)

Tests used:
Botrytis cinerea [1] = type: cell-based; conditions: 120 h, 25 ppm by volume, Vogel medium, 20° C., five days, dark, read-out: growth inhibition ratio
Botrytis cinerea [2] = test: Control test of cucumber gray mold (sprayed young cucumber seedlings); type: in vivo; conditions: 96 h, 125 ppm by mass spray, four days after inoculation
Protocol: Then, the drug liquid was sprayed onto young cucumber seedlings cultivated in a nursery pot (variety “Jihai”-based, cotyledon stage), and then air-dried. […] They were left still in a moist room at 20° C. Four days after inoculation, leaves of the young cucumber seedlings were visually observed, and the control value was calculated from the lesion area ratio in accordance with the following equation. [formula]

Colletotrichum acutatum = test: Fungicidal effect test against fungi causing apple anthracnose; conditions: 96 h, read-out: growth inhibition ratio
Glomerella cingulata = test: Fungicidal effect test against fungi causing grape ripe rot disease; conditions: Colletotrichum gloeosporioides, 72 h, read-out: growth inhibition ratio

CC(=O)N(Cc1ccc(C)cc1C)NC(=O)c1c(Oc2cccc(C3CC3)c2F)nnc(Cl)c1C [b-10]
≥ 75%: inhibition of growth at 25 ppm (Botrytis cinerea [1]) | pest or weed control at 125 ppm (Botrytis cinerea [2]) | inhibition of growth at 25 ppm (Colletotrichum acutatum) | inhibition of growth at 25 ppm (Glomerella cingulata)

COC(=O)N(Cc1ccc(C)cc1C)NC(=S)c1cc(C)nnc1Oc1cccc(C2CC2)c1F [b-59, Methyl 2-(3-(3-cyclopropyl-2-fluorophenoxy)-6-methylpyridazine-4-carbonothioyl)-1-(2,4-dimethylbenzyl)hydrazine-1-carboxylate]
≥ 75%: inhibition of growth at 25 ppm (Botrytis cinerea [1]) | pest or weed control at 125 ppm (Botrytis cinerea [2]) | inhibition of growth at 25 ppm (Colletotrichum acutatum) | inhibition of growth at 25 ppm (Glomerella cingulata)

COC(=O)N(Cc1ccc(C)cc1C)NC(=O)c1nc(C)nnc1Oc1cccc(Br)c1 [b-129]
≥ 75%: inhibition of growth at 25 ppm (Botrytis cinerea [1]) | inhibition of growth at 25 ppm (Colletotrichum acutatum) | inhibition of growth at 25 ppm (Glomerella cingulata)

COC(=O)N(Cc1ccc(C)cc1C)NC(=O)c1cc(C)nnc1Oc1cccc(OC(F)(F)F)c1 [b-133]
≥ 75%: inhibition of growth at 25 ppm (Botrytis cinerea [1]) | inhibition of growth at 25 ppm (Colletotrichum acutatum) | inhibition of growth at 25 ppm (Glomerella cingulata)

COC(=O)N(Cc1ccc(C)cc1C)NC(=O)c1cc(C)nnc1Oc1cccc(SC)c1 [b-136]
≥ 75%: inhibition of growth at 25 ppm (Botrytis cinerea [1]) | inhibition of growth at 25 ppm (Colletotrichum acutatum) | inhibition of growth at 25 ppm (Glomerella cingulata)

COC(=O)N(Cc1ccc(C)cc1C)NC(=O)c1cnncc1Oc1cccc(C2CC2)c1F [b-142, Methyl 2-(5-(3-cyclopropyl-2-fluorophenoxy)pyridazine-4-carbonyl)-1-(2,4-dimethylbenzyl)hydrazine-1-carboxylate]
≥ 75%: inhibition of growth at 25 ppm (Botrytis cinerea [1]) | inhibition of growth at 25 ppm (Colletotrichum acutatum) | inhibition of growth at 25 ppm (Glomerella cingulata)

CSC(=O)N(Cc1ccc(C)cc1C)NC(=O)c1cc(C)nnc1Oc1cccc(C2CC2)c1F [b-166, S-methyl 2-(3-(3-cyclopropyl-2-fluorophenoxy)-6-methylpyridazine-4-carbonyl)-1-(2,4-dimethylbenzyl)hydrazine-1-carbothioate]
≥ 75%: inhibition of growth at 25 ppm (Botrytis cinerea [1]) | inhibition of growth at 25 ppm (Colletotrichum acutatum) | inhibition of growth at 25 ppm (Glomerella cingulata)

COC(=O)N(NC(=O)c1cc(C)nnc1Oc1cccc(C2CC2)c1F)C1(c2ccc(Br)cc2)CC1 [b-179]
≥ 75%: inhibition of growth at 25 ppm (Botrytis cinerea [1]) | inhibition of growth at 25 ppm (Colletotrichum acutatum) | inhibition of growth at 25 ppm (Glomerella cingulata)

COC(=O)N(Cc1ccc(C)cc1C)NC(=O)c1cc(-c2ccc(F)cc2)ncc1Oc1cccc(C2CC2)c1F [b-185]
≥ 75%: inhibition of growth at 25 ppm (Botrytis cinerea [1]) | inhibition of growth at 25 ppm (Colletotrichum acutatum) | inhibition of growth at 25 ppm (Glomerella cingulata)

COC(=O)N(Cc1ccc(C)cc1C)NC(=O)c1cc(S(C)(=O)=O)ncc1Oc1cccc(C2CC2)c1F [b-193]
≥ 75%: inhibition of growth at 25 ppm (Botrytis cinerea [1]) | inhibition of growth at 25 ppm (Colletotrichum acutatum) | inhibition of growth at 25 ppm (Glomerella cingulata)

COC(=O)N(Cc1ccc(C)cc1C)N(C)C(=O)c1cc(C)nnc1Oc1cccc(C2CC2)c1F [b-195]
≥ 75%: inhibition of growth at 25 ppm (Botrytis cinerea [1]) | inhibition of growth at 25 ppm (Colletotrichum acutatum) | inhibition of growth at 25 ppm (Glomerella cingulata)

COC(=O)N(Cc1ccc(C)cc1C)NC(=O)c1c(Oc2cccc(C3CC3)c2F)cncc1C(C)=O [b-221]
≥ 75%: inhibition of growth at 25 ppm (Botrytis cinerea [1]) | inhibition of growth at 25 ppm (Colletotrichum acutatum) | inhibition of growth at 25 ppm (Glomerella cingulata)

COC(=O)N(Cc1ccc(OC)cc1C)NC(=O)c1c(Oc2cccc(C3CC3)c2)cnn(C(C)C)c1=O [b-225]
≥ 75%: inhibition of growth at 25 ppm (Botrytis cinerea [1]) | inhibition of growth at 25 ppm (Colletotrichum acutatum) | inhibition of growth at 25 ppm (Glomerella cingulata)
